According to patent publication US5750504A, “Antimicrobial proteins” (Zeneca Agrochemicals, priority 1996, dated 1998):

How the values were obtained:
[1] = molecular target: T1, porcine α-amylase (porcine pancreas) (Sus scrofa, UniProt P00690); test: Inhibition of α-amylase; type: biochemical; conditions: porcine enzyme; rates as high as 200 μg/ml
T1 construct: the enzyme from porcine pancreas; purchased Sigma; host or cells: porcine pancreas
T1 sequence (P00690 16-511): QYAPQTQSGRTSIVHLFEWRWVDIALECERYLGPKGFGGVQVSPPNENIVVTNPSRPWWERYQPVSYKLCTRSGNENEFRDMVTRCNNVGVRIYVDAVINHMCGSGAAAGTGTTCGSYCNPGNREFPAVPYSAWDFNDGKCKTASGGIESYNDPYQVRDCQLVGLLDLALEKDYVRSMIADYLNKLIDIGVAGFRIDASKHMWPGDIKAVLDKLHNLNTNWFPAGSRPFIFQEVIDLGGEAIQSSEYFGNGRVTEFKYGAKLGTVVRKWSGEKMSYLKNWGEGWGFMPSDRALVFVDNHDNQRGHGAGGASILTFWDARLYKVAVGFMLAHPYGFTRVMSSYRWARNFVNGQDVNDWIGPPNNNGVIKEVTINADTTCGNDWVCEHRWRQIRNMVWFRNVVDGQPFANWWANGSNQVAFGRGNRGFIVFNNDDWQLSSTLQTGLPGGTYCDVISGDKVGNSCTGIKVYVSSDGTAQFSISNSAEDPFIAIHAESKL
Method: (§1) A crude α-amylase extract was prepared from dissected guts of adult cockroaches (Blatta orientalis) by homogenising in 20 mM Tris/HCl, pH 7.5, 10 mM CaCl2 and removal of cell-debris by centrifugation. Human and porcine α-amylases were purchased from Sigma. Type 1-α-amylaseinhibitor from wheat (purchased from Sigma) was used as a positive control. Amylase extracts were incubated with peptides for 20 min at 30° C. prior to addition of starch and enzyme activity was detected using the method of Bernfeld (1955, Methods Enzymol, Colwick and Kaplan eds, vol 1:149-158).
(§2) The α-amylase inhibition activities of Hs-AFP1 and Ah-AMP1 were compared on α-amylases from the three sources to that of the Sorgum bicolor homologue SIα3, previously reported to inhibit insect gut α-amylases (Bloch and Richardson, 1991, FEBS Lett, 279:101-104). SIα3 inhibited the activity of the enzymes from insect gut and human saliva to greater than 70% at rates as low as 5 μg/ml.

[2] = molecular target: T2, Human α-amylase (human saliva) (Homo sapiens, UniProt P0DUB6); test: Inhibition of α-amylase; type: biochemical; conditions: human enzyme; rates as high as 200 μg/ml
T2 construct: the enzymes from insect gut and human saliva; purchased Sigma; host or cells: human saliva
T2 sequence (P0DUB6 16-511): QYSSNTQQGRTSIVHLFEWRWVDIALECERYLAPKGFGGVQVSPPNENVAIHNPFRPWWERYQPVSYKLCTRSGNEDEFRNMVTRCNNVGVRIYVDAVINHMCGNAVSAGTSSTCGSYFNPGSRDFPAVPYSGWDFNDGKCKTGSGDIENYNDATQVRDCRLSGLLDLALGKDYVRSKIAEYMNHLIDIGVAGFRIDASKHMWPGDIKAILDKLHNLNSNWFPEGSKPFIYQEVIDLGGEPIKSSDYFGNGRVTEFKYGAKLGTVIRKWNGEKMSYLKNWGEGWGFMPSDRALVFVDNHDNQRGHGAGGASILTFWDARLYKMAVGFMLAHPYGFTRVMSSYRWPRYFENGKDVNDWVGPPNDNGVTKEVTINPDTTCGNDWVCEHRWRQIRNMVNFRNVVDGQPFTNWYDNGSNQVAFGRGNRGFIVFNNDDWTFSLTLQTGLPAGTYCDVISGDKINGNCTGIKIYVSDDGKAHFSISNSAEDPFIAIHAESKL
Method: as §1, §2

Alternaria longipes = test: Antifungal activity assay (microspectrophotometry); type: cell-based; conditions: strain CBS620.83, host Nicotiana, inoculum Sp, period of incubation in AFP-solution 70
Method: (§3) Antifungal activity was measured by microspectrophotometry as previously described (Broekaert, 1990, FEMS Microbiol Lett, 69:55-60). Routinely, tests were performed with 20 μl of a (filter-sterilized) test solution and 80 μl of a suspension of fungal spores (2×10^4 spores/ml) in half strength potato dextrose broth (1/2 PDB). […] Control microcultures contained 20 μl of sterile distilled water and 80 μl of the fungal spore suspension.
(§4) Unless otherwise stated the test organism was Fusarium culmorum (strain IMI 180420) and incubation was done at 25° C. for 48 hours. Percent growth inhibition is defined as 100 times the ratio of the corrected absorbance of the control microculture minus the corrected absorbance of the test microculture over the corrected absorbance at 595 nm of the control microculture. The corrected absorbance values equal the absorbance at 595 nm of the culture measured after 48 hours minus the absorbance at 595 nm measured after 30 min.
(§5) The antifungal potency of the purified proteins was assessed on different plant pathogenic fungi, using the assay described in Example 1. Growth of fungi, collection and harvest of fungal spores and preparation of mycelial fragments were done as previously described (Broekaert et al, 1990, FEMS Microbiol Lett, 69:55-60). Serial dilutions of the antifungal proteins were applied to the fungi, either using growth medium SMF- (the synthetic growth medium of Example 1), medium SMF+ (medium SMF- supplemented with 1 mM CaCl2 and 50 mM KCl), growth medium 1/2 PDB- (half strength potato dextrose broth as in Example 1) or growth medium 1/2 PDB+ (medium 1/2 PDB- supplemented with 1 mM CaCl2 and 50 mM Kcl). The percent growth inhibition was measured by microspectrophotometry. […]
(§6) The abbreviations used are: IC50 =concentration required for 50% growth inhibition determined as described in Example 1; ND=not determined; Sp=spores; PrSp=spores pregerminated in the medium for 24 hours; MF=mycelial fragments preincubated for 48 hours in the medium prior to addition of the proteins; BHR=broad host range; SF=saprophytic fungus; SMF-=synthetic growth medium as described in Example 1; SMF+=SMF- supplemented with 1 mM CaCl2 and 50 mM KCl; 1/2PDB-=half strength potato dextrose broth as described in Example 1; 1/2PDB+=1/2PDB- supplemented with 1 mM CaCl2 and 50 mM KCl.

Leptospaeria maculans = test: Antifungal activity assay (microspectrophotometry); type: cell-based; conditions: for antifungal activity on Leptospaeria maculans (in words): in 1/2PDB+; for IC50: host Brassica
Method: as §3, §4, §5, §6

Alternaria brassicae = test: Antifungal activity assay (microspectrophotometry); type: cell-based; conditions: for IC50: host Brassica, inoculum Sp, period of incubation in AFP-solution 66
Method: as §3, §4, §5, §6

Cercospora beticola = test: Antifungal activity assay (microspectrophotometry); type: cell-based; conditions: strain SES; host Beta; medium 1/2PDB+; inoculum PrSp; period of incubation in AFP-solution
Method: as §3, §4, §5, §6

[3] = test system: hyphae of Fusarium culmorum; test: Morphological effect on hyphae; type: cell-based
[4] = test system: crude α-amylase extract from guts of adult cockroaches; test: Inhibition of α-amylase; type: biochemical, Blatta orientalis; conditions: cockroach gut enzyme; rates as high as 200 μg/ml
Method: as §1, §2

[5] = strain LM36uea, medium 1/2PDB+, inoculum Sp, period of incubation in AFP-solution 48
[6] = strain LM36uea, medium 1/2PDB-, inoculum Sp, period of incubation in AFP-solution 48
[7] = strain SES1, medium 1/2PDB+, inoculum PrSp, period of incubation in AFP-solution 120
[8] = strain SES2, medium 1/2PDB+, inoculum PrSp, period of incubation in AFP-solution 120

Row | Substance | inhibition of α-amylase activity [1] | inhibition of α-amylase activity [2] | IC50 (Alternaria longipes; medium SMF+) | IC50 (Alternaria longipes; medium SMF-) | antifungal activity on Leptospaeria maculans (in words) (Leptospaeria maculans) | IC50 (Leptospaeria maculans; [5]) | IC50 (Leptospaeria maculans; [6]) | IC50 (Leptospaeria maculans; [7]) | IC50 (Leptospaeria maculans; [8]) | IC50 (Alternaria brassicae; medium SMF+) | IC50 (Alternaria brassicae; medium SMF-) | IC50 (Cercospora beticola) | hyper-branching of hyphae of Fusarium culmorum [3] | inhibition of α-amylase activity [4] | reduction of activity in medium SMF- versus SMF+ (Alternaria brassicae; on Alternaria brassicae)
1 | Hs-AFP1: Heuchera sanquinea antifungal protein 1; 5 kDa polypeptide purified from seeds, 54 amino acids, SEQ ID NO 1 (DGVKLCDVPSGTWSGHCGSSSKCSQQCKDREHFAYGGACHYQFPSVKCFCKRQC) | no inhibition | no inhibition | 6 µg/mL | 0.75 µg/mL | is not | > 100 µg/mL | 25 µg/mL | > 100 µg/mL | > 100 µg/mL | 3 µg/mL | 1.5 µg/mL | 1.5 µg/mL | causes hyper-branching | no inhibition | –
2 | Ah-AMP1: Aesculus hippocastanum antimicrobial protein 1; 5 kDa polypeptide purified from seeds, 50 amino acids, SEQ ID NO 2 (LCNERPSQTWSGNCGNTAHCDKQCQDWEKASHGACHKRENHWKCFCYFNC) | no inhibition | no inhibition | 100 µg/mL | 25 µg/mL | highly active | 6 µg/mL | 0.5 µg/mL | < 0.75 µg/mL | < 0.75 µg/mL | 3 µg/mL | 1.5 µg/mL | 1.5 µg/mL | does not cause hyper-branching | no inhibition | two-fold
